Data from ChEMBL document CHEMBL5724914, “Linking interpersonal differences in gut microbiota composition and drug biotransformation activity” (2024).

Legend:
[1] = human gut metagenome, 24 h, 2 µM
[2] = (§1) The drug is tested on WLS-069 corresponding to human gut metagenome with ENA study accession number: PRJEB37062 and ENA sample accession number: ERS12561748 for biotransformation under anaerobic condition. The drug concentrations were measured over 9 timepoints collected between 0 and 24 hours of incubation by liquid-chromatography-coupled mass spectrometry (LC–MS); details: 2 µM
[3] = as §1, with “WLS-220” for “WLS-069”, “ERS12561769” for “ERS12561748”; details: 2 µM
[4] = as §1, with “Z-024” for “WLS-069”, “pig” for “human”, “ERS12561823” for “ERS12561748”; details: 2 µM
[5] = human gut metagenome, 24 h, 2 µM; remark: listed apart in the source
[6] = human gut metagenome, 24 h, 2 µM; remark: listed apart in the source
[7] = as §1, with “WLS-090” for “WLS-069”, “ERS12561753” for “ERS12561748”; details: 2 µM
[8] = as §1, with “WLS-310” for “WLS-069”, “ERS12561785” for “ERS12561748”; details: 2 µM
[9] = as §1, with “Z-020” for “WLS-069”, “rabbit” for “human”, “ERS12561819” for “ERS12561748”; details: 2 µM
[10] = human gut metagenome, 24 h, 2 µM; remark: listed apart in the source
[11] = as §1, with “Z-010” for “WLS-069”, “to” for “to human gut”, “ERS12561810” for “ERS12561748”; details: 2 µM
[12] = as §1, with “WLS-082” for “WLS-069”, “ERS12561751” for “ERS12561748”; details: 2 µM
[13] = as §1, with “WLS-039” for “WLS-069”, “ERS12561746” for “ERS12561748”; details: 2 µM
[14] = human gut metagenome, 24 h, 2 µM; remark: listed apart in the source
[15] = as §1, with “Z-005” for “WLS-069”, “to” for “to human gut”, “ERS12561805” for “ERS12561748”; details: 2 µM
[16] = as §1, with “WLS-052” for “WLS-069”, “ERS12561747” for “ERS12561748”; details: 2 µM
[17] = as §1, with “WLS-027” for “WLS-069”, “ERS12561744” for “ERS12561748”; details: 2 µM
[18] = human gut metagenome, 24 h, 2 µM; remark: listed apart in the source
[19] = as §1, with “Z-011” for “WLS-069”, “mouse” for “human”, “ERS12561811” for “ERS12561748”; details: 2 µM
[20] = as §1, with “Z-026” for “WLS-069”, “to” for “to human gut”, “ERS12561825” for “ERS12561748”; details: 2 µM
Also: call rule not given here.

Row | Compound | Bacterial Biotransformation [1] | Bacterial Biotransformation [2] | Bacterial Biotransformation [3] | Bacterial Biotransformation [4] | Bacterial Biotransformation [5] | Bacterial Biotransformation [6] | Bacterial Biotransformation [7] | Bacterial Biotransformation [8] | Bacterial Biotransformation [9] | Bacterial Biotransformation [10] | Bacterial Biotransformation [11] | Bacterial Biotransformation [12] | Bacterial Biotransformation [13] | Bacterial Biotransformation [14] | Bacterial Biotransformation [15] | Bacterial Biotransformation [16] | Bacterial Biotransformation [17] | Bacterial Biotransformation [18] | Bacterial Biotransformation [19] | Bacterial Biotransformation [20]
1 | CCN(CC)CC#CCOC(=O)C(O)(c1ccccc1)C1CCCCC1.Cl (stereo not given) [OXYBUTYNIN CHLORIDE] | Compound metabolized | Compound metabolized | Compound metabolized | Compound metabolized | Compound metabolized | Compound NOT metabolized | Compound metabolized | Compound metabolized | Compound metabolized | Compound metabolized | Compound metabolized | Compound metabolized | Compound metabolized | Compound metabolized | Compound metabolized | Compound metabolized | Compound metabolized | Compound NOT metabolized | Compound NOT metabolized | Compound NOT metabolized
2 | CC[C@@H](CO)NC(=O)[C@@H]1C=C2c3cccc4c3c(cn4C)C[C@H]2N(C)C1.O=C(O)/C=C\C(=O)O [METHYSERGIDE MALEATE] | Compound NOT metabolized | Compound NOT metabolized | Compound NOT metabolized | Compound NOT metabolized | Compound metabolized | Compound NOT metabolized | Compound NOT metabolized | Compound metabolized | Compound NOT metabolized | Compound NOT metabolized | Compound NOT metabolized | Compound NOT metabolized | Compound NOT metabolized | Compound NOT metabolized | Compound NOT metabolized | Compound NOT metabolized | Compound NOT metabolized | Compound NOT metabolized | Compound NOT metabolized | Compound NOT metabolized
3 | CN1CCOC(c2ccccc2)c2ccccc2C1 (stereo not given) [NEFOPAM] | Compound NOT metabolized | Compound NOT metabolized | Compound metabolized | Compound NOT metabolized | Compound metabolized | Compound metabolized | Compound metabolized | Compound NOT metabolized | Compound NOT metabolized | Compound NOT metabolized | Compound NOT metabolized | Compound NOT metabolized | Compound NOT metabolized | Compound metabolized | Compound NOT metabolized | Compound NOT metabolized | Compound metabolized | Compound NOT metabolized | Compound NOT metabolized | Compound NOT metabolized
4 | CN1CC(=O)N2[C@H](c3ccc4c(c3)OCO4)c3[nH]c4ccccc4c3C[C@@H]2C1=O | Compound metabolized | Compound metabolized | Compound metabolized | Compound metabolized | Compound metabolized | Compound metabolized | Compound metabolized | Compound metabolized | Compound NOT metabolized | Compound NOT metabolized | Compound metabolized | Compound metabolized | Compound NOT metabolized | Compound metabolized | Compound NOT metabolized | Compound metabolized | Compound metabolized | Compound NOT metabolized | Compound NOT metabolized | Compound NOT metabolized
5 | CCN(CC)CCOC(=O)C(Cc1cccc2ccccc12)CC1CCCO1.O=C(O)C(=O)O (stereo not given) [NAFRONYL OXALATE] | Compound metabolized | Compound metabolized | Compound metabolized | Compound metabolized | Compound metabolized | Compound metabolized | Compound metabolized | Compound metabolized | Compound metabolized | Compound NOT metabolized | Compound metabolized | Compound metabolized | Compound metabolized | Compound metabolized | Compound metabolized | Compound metabolized | Compound metabolized | Compound NOT metabolized | Compound NOT metabolized | Compound NOT metabolized
6 | CS(=O)(=O)O.OC(CCN1CCCCC1)(c1ccccc1)c1ccccc1 [PRIDINOL METHANESULFONATE] | Compound NOT metabolized | Compound NOT metabolized | Compound metabolized | Compound NOT metabolized | Compound metabolized | Compound NOT metabolized | Compound metabolized | Compound metabolized | Compound NOT metabolized | Compound NOT metabolized | Compound NOT metabolized | Compound NOT metabolized | Compound NOT metabolized | Compound metabolized | Compound NOT metabolized | Compound NOT metabolized | Compound NOT metabolized | Compound NOT metabolized | Compound NOT metabolized | Compound NOT metabolized
7 | CCCCc1nc(Cl)c(CO)n1Cc1ccc(-c2ccccc2-c2nn[nH]n2)cc1 [LOSARTAN] | Compound metabolized | Compound metabolized | Compound metabolized | Compound NOT metabolized | Compound metabolized | Compound metabolized | Compound metabolized | Compound metabolized | Compound NOT metabolized | Compound NOT metabolized | Compound NOT metabolized | Compound metabolized | Compound NOT metabolized | Compound metabolized | Compound NOT metabolized | Compound NOT metabolized | Compound metabolized | Compound NOT metabolized | Compound NOT metabolized | Compound NOT metabolized
8 | CCc1nn(CCCN2CCN(c3cccc(Cl)c3)CC2)c(=O)n1CCOc1ccccc1 [NEFAZODONE] | Compound metabolized | Compound metabolized | Compound metabolized | Compound NOT metabolized | Compound metabolized | Compound NOT metabolized | Compound metabolized | Compound metabolized | Compound NOT metabolized | Compound metabolized | Compound NOT metabolized | Compound metabolized | Compound metabolized | Compound metabolized | Compound NOT metabolized | Compound metabolized | Compound metabolized | Compound metabolized | Compound NOT metabolized | Compound NOT metabolized
